Read-outs that look alike come from different tables or passages of the source.
What was measured:
[1] = Binding to human plasma proteins by equilibrium dialysis; format: in vitro ADME; settings: human, pooled human plasma; 2-25 μM, 37° C.; read-out: protein binding (converted)
Method: The plasma aliquots were incubated at 37° C. for 1 h, and then were dialyzed against PBS buffer at 37° C. for 4 h using Dianorm Equilibrium Dialysers.

[2] = tested on: DU-145; settings: human, 4 h
Method: (§1) Control plates received the same volume of DMSO alone. After a 4 hour exposure the drug was carefully removed, and drug-free medium could be added. […] Colonies of greater than 50 cells were scored as survivors. Cells were maintained at 37° C. in 5% CO2 in complete humidity.

[3] = tested on: CAOV-3; settings: human, 4 h
Method: as §1

[4] = tested on: MCF-7; settings: human, 4 h
Method: as §1

[5] = tested on: A549 human lung cancer cells; settings: 60 mg/kg IP every three days, 8 treatments
Method: Athymic female nude mice (Ncr) were inoculated subcutaneously with 4×10^6 A549 human lung cancer cells, and the tumors were allowed to grow to 50 mm^3 in size. The animals were randomized into three groups of seven animals per group. […] Mean tumor volume was then analyzed.

[6] = in vivo
[7] = tested on: CAOV-3; assay: cells; settings: Homo sapiens, Caov-3, read-out: LC50 (Replicate Results), CAOV-3, 4 hour exposure, colonies after 14-21 days
Method: as §1

[8] = in vivo; settings: Sprague-Dawley, rat, 10 mg/kg, AUC* (estimated from toxicology experiments)
[9] = Study 2A: repetitive weekly intravenous toxicity study in dogs; settings: for decreased hemoglobin: Day 23
From the text: On Day 23 of the study, 4 animals/sex/group were euthanized (barbiturate overdose) followed by exsanguination and subjected to necropsy as described below.

[10] = Pharmacokinetic profile of intraperitoneal dosing in mice, Lipiodol formulation; settings: IP 150 mg/m^2 in Lipiodol
Method: A study was performed to determine the pharmacokinetic profile of intraperitoneal (IP) dosing in mice.

CC1(C)CCC2=C(O1)c1ccccc1C(=O)C2=O [β-lapachone, 3,4-dihydro-2,2-dimethyl-2H-naphtho [1,2-b]pyran-5,6-dione]
fraction unbound at 4 h [1]: 0.07 | CC50 [2]: 1210 nM | CC50 [3]: 1440 nM | CC50 [4]: 1560 nM | reduction of mean tumor volume [5]: approximately 50% | doses without significant toxicity ([6]; Sprague-Dawley (Hsd:SD) rats, Beagle dogs, rat and dog, iv, 4 weeks): less than 270 mg/m^2 | bone marrow suppression, gastrointestinal toxicity, alopecia [6]: no evidence of bone marrow suppression, gastrointestinal toxicity or alopecia | major organ toxicity (myelosuppression, hepatic, renal, neurotoxicity, cardiotoxicity) [6]: No evidence of major organ toxicity | CC50 [7]: 1560 nM | AUC [8]: 2640 ng·h/mL | findings ([9]; 15 mg/kg and 35 mg/kg): signs of reversible extravascular hemolysis | bilirubin ([9]; Days 2 and 23, resolved by Day 37): dose-dependent slight increase | ophthalmologic findings ([9]; dog, in vivo): no drug-related ophthalmologic findings | splenic enlargement (animals) ([9]; high-dose (35 mg/kg)): 3/8 | decreased hemoglobin ([9]; high-dose (35 mg/kg)): ~5 g/dL | mean decrease in body weight ([9]; high-dose (35 mg/kg), females): −4% | mean decrease in body weight ([9]; high-dose (35 mg/kg), males): −7% | splenic enlargement (animals) ([9]; mid-dose (15 mg/kg)): 5/8 | decreased hemoglobin ([9]; mid-dose (15 mg/kg)): ~3 g/dL | peak plasma level [10]: approximately 8 μM | time at which peak plasma levels were achieved [10]: within one-half hour

— patent US20050187288A1, “Beta-lapachone and methods of treating cancer” (priority 2004, published 2005)
